What was measured:
[1] = Protocol: The volatility was determined by analyzing the loss of material by HLPL at 70° C. after 24 h at atmospheric pressure and the loss is summarized in Table 5. The application rate was 500 g/ha dicamba (free acid), 1000 g/ha potassium glyphosate, 300 g/ha Genamin® T050 (“Ad2”, 300 g/ha Preference® (“Ad3”) and optionally 250, 500 or 1000 g/ha K2CO3. Deionised water (hardness<1° dH) was used to prepare the samples. Dicamba BAPMA refers to the bis(3-aminopropyl)methylamine salt of dicamba.
[2] = system: Soya (glycine max) Variant Deltapine, genetically engineered to resist glyphosate; type: in vivo; settings: conclusion from Table 4
Protocol: For the greenhouse tests, maize (cultivar Amadeo) and Chenopodium album was sown or potted in loamy sandy soil to a depth of 1-2 cm. When the plants had reached a growth height of 10 to 25 cm (around 10 to 21 days after sowing), the spray mixtures were applied to the plants in a spraying cabin.
The temperatures in the experimental period, which lasted for 3 to 4 weeks, were between 18-35° C. During this time, the experimental plants received optimum watering, with nutrients being supplied via the water used for watering.
The herbicidal activity was evaluated by awarding scores to the treated plants in comparison to the untreated control plants (Table 1 and 2). The evaluation scale ranges from 0% to 100% activity. 100% activity means the complete death at least of those parts of the plant that are above ground. Conversely, 0% activity means that there were no differences between treated and untreated plants.
The biological evaluation was made as described in Example 6. The tank mixes were applied at a application rate of 375 l/ha (125 or 250 g of glyphosate free acid/ha and 300 g of adjuvant/ha). The adjuvant Ad1 is an aqeuous solution of 200 g/l Genamin® T150 (a tallow fatty amine ethoxylate with 15 EO). The adjuvant Ad2 is Genamin® T050 (a tallow fatty amine ethoxylate with 5 EO).
Soya (glycine max) Variant Deltapine was genetically engineered to resist glyphosate.

Row | Structure (SMILES) | Loss of dicamba, Loss (wt %) ([1]; 70° C., 24 h, atmospheric pressure, 500 g/ha dicamba (free acid), deionised water) | pH of tank mix ([1]; deionised water (hardness<1° dH)) | phytotoxity effect on plants of addition of K2CO3 [2]
1 | CN(CCCN)CCCN.COc1c(Cl)ccc(Cl)c1C(=O)O [Dicamba BAPMA, bis(3-aminopropyl)methylamine salt of dicamba] | <1 | 6.3 | 
2 | O=C([O-])[O-].[K+].[K+] [Example K2CO3, K2CO3] |  |  | no phytotoxity effect
